Experimental data published in PubChem BioAssay (NCI).
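Assay format: 96-well plates, 48-hour exposure. The concentration for full growth arrest is given as TGI.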

How the values were obtained:
Assay in all cases: NCI-60 cell line screen, 48 h
U251 CNS = system: U251 CNS
ACHN renal = system: ACHN renal
PC-3 prostate = system: PC-3 prostate
LOX IMVI melanoma = system: LOX IMVI melanoma
KM12 colon = system: KM12 colon
CCRF-CEM leukemia = system: CCRF-CEM leukemia
SK-MEL-28 melanoma = system: SK-MEL-28 melanoma
IGROV1 ovarian = system: IGROV1 ovarian
NCI-H226 lung = system: NCI-H226 lung
EKVX NSCLC = system: EKVX NSCLC
UO-31 renal = system: UO-31 renal
SN12C renal = system: SN12C renal
MALME-3M melanoma = system: MALME-3M melanoma
HCC-2998 colon = system: HCC-2998 colon
M14 melanoma = system: M14 melanoma
HCT-116 colon = system: HCT-116 colon
MCF7 breast = system: MCF7 breast
K-562 leukemia = system: K-562 leukemia
MDA-N = system: MDA-N
NCI-H460 lung = system: NCI-H460 lung
HOP-62 NSCLC = system: HOP-62 NSCLC
SW-620 colon = system: SW-620 colon
SK-MEL-5 melanoma = system: SK-MEL-5 melanoma
HT29 colon = system: HT29 colon
OVCAR-5 ovarian = system: OVCAR-5 ovarian
NCI-H522 lung = system: NCI-H522 lung
COLO 205 colon = system: COLO 205 colon
HOP-92 NSCLC = system: HOP-92 NSCLC
BT-549 breast = system: BT-549 breast
CAKI-1 renal = system: CAKI-1 renal
RXF 393 renal = system: RXF 393 renal
786-0 renal = system: 786-0 renal
SF-539 CNS = system: SF-539 CNS
UACC-62 melanoma = system: UACC-62 melanoma
DU-145 prostate = system: DU-145 prostate
SK-MEL-2 melanoma = system: SK-MEL-2 melanoma
A549 NSCLC = system: A549 NSCLC
A498 renal = system: A498 renal
NCI-H23 lung = system: NCI-H23 lung
T-47D breast = system: T-47D breast
RPMI-8226 leukemia = system: RPMI-8226 leukemia
OVCAR-8 ovarian = system: OVCAR-8 ovarian
SK-OV-3 ovarian = system: SK-OV-3 ovarian
SNB-75 CNS = system: SNB-75 CNS
SF-268 CNS = system: SF-268 CNS
MOLT-4 leukemia = system: MOLT-4 leukemia
OVCAR-3 ovarian = system: OVCAR-3 ovarian
SR leukemia = system: SR leukemia
SF-295 CNS = system: SF-295 CNS
HCT-15 colon = system: HCT-15 colon
HS 578T breast = system: HS 578T breast
TK-10 renal = system: TK-10 renal
NCI/ADR-RES ovarian = system: NCI/ADR-RES ovarian
MDA-MB-435 = system: MDA-MB-435
SNB-19 CNS = system: SNB-19 CNS
UACC-257 melanoma = system: UACC-257 melanoma
HL-60(TB) leukemia = system: HL-60(TB) leukemia
MDA-MB-231 breast = system: MDA-MB-231 breast
OVCAR-4 ovarian = system: OVCAR-4 ovarian

For `Cc1ncc(-c2nnnn2-c2ccccc2)c(C(=O)O)n1`, which TGI (U251 CNS) is on record?
The TGI was over 100 µM.

What about the TGI (ACHN renal) of the same compound?
Its TGI is over 100 µM.

What about the TGI (PC-3 prostate) of the same compound?
Its TGI is over 100 µM.

What about the TGI (LOX IMVI melanoma) of the same compound?
Its TGI is over 100 µM.

What about the TGI (KM12 colon) of the same compound?
The TGI was over 100 µM.

What about the TGI (CCRF-CEM leukemia) of the same compound?
Its TGI is over 100 µM.

What about the TGI (SK-MEL-28 melanoma) of the same compound?
Its TGI is over 100 µM.

And the TGI (IGROV1 ovarian)?
Its TGI is over 100 µM.

What about the TGI (NCI-H226 lung) of the same compound?
Its TGI is over 100 µM.

What about the TGI (EKVX NSCLC) of the same compound?
Its TGI is over 100 µM.

What about the TGI (UO-31 renal) of the same compound?
The TGI was over 100 µM.

What about the TGI (SN12C renal) of the same compound?
Its TGI is over 100 µM.

And the TGI (MALME-3M melanoma)?
Its TGI is over 100 µM.

What about the TGI (HCC-2998 colon) of the same compound?
Its TGI is over 100 µM.

And the TGI (M14 melanoma)?
The TGI was over 100 µM.

What about the TGI (HCT-116 colon) of the same compound?
Its TGI is over 100 µM.

What about the TGI (MCF7 breast) of the same compound?
The TGI was over 100 µM.

And the TGI (K-562 leukemia)?
Its TGI is over 100 µM.

What about the TGI (MDA-N) of the same compound?
The TGI was over 100 µM.

What about the TGI (NCI-H460 lung) of the same compound?
Its TGI is over 100 µM.

And the TGI (HOP-62 NSCLC)?
Its TGI is over 100 µM.

What about the TGI (SW-620 colon) of the same compound?
Its TGI is over 100 µM.

What about the TGI (SK-MEL-5 melanoma) of the same compound?
Its TGI is over 100 µM.

What about the TGI (HT29 colon) of the same compound?
Its TGI is over 100 µM.

And the TGI (OVCAR-5 ovarian)?
The TGI was over 100 µM.

And the TGI (NCI-H522 lung)?
Its TGI is over 100 µM.

And the TGI (COLO 205 colon)?
The TGI was over 100 µM.

And the TGI (HOP-92 NSCLC)?
The TGI was over 100 µM.

And the TGI (BT-549 breast)?
Its TGI is over 100 µM.

What about the TGI (CAKI-1 renal) of the same compound?
Its TGI is over 100 µM.

What about the TGI (RXF 393 renal) of the same compound?
The TGI was over 100 µM.

What about the TGI (786-0 renal) of the same compound?
The TGI was over 100 µM.

And the TGI (SF-539 CNS)?
The TGI was over 100 µM.

And the TGI (UACC-62 melanoma)?
The TGI was over 100 µM.

What about the TGI (DU-145 prostate) of the same compound?
The TGI was over 100 µM.

And the TGI (SK-MEL-2 melanoma)?
The TGI was over 100 µM.

What about the TGI (A549 NSCLC) of the same compound?
Its TGI is over 100 µM.

And the TGI (A498 renal)?
Its TGI is over 100 µM.

What about the TGI (NCI-H23 lung) of the same compound?
Its TGI is over 100 µM.

What about the TGI (T-47D breast) of the same compound?
Its TGI is over 100 µM.

And the TGI (RPMI-8226 leukemia)?
The TGI was over 100 µM.

And the TGI (OVCAR-8 ovarian)?
The TGI was over 100 µM.

What about the TGI (SK-OV-3 ovarian) of the same compound?
Its TGI is over 100 µM.

And the TGI (SNB-75 CNS)?
The TGI was over 100 µM.

And the TGI (SF-268 CNS)?
Its TGI is over 100 µM.

What about the TGI (MOLT-4 leukemia) of the same compound?
The TGI was over 100 µM.

What about the TGI (OVCAR-3 ovarian) of the same compound?
Its TGI is over 100 µM.

What about the TGI (SR leukemia) of the same compound?
The TGI was over 100 µM.

And the TGI (SF-295 CNS)?
The TGI was over 100 µM.

What about the TGI (HCT-15 colon) of the same compound?
Its TGI is over 100 µM.

And the TGI (HS 578T breast)?
The TGI was over 100 µM.

What about the TGI (TK-10 renal) of the same compound?
The TGI was over 100 µM.

What about the TGI (NCI/ADR-RES ovarian) of the same compound?
The TGI was over 100 µM.

And the TGI (MDA-MB-435)?
The TGI was over 100 µM.

And the TGI (SNB-19 CNS)?
The TGI was over 100 µM.

And the TGI (UACC-257 melanoma)?
Its TGI is over 100 µM.

What about the TGI (HL-60(TB) leukemia) of the same compound?
Its TGI is over 100 µM.

And the TGI (MDA-MB-231 breast)?
Its TGI is over 100 µM.

With `CN(C)c1ccc(/C=C2\C[C@H]3[C@@H]4CCc5cc(OCCN6CCCC6)ccc5[C@H]4CC[C@]3(C)[C@H]2O)cc1` as the compound, how does the TGI (U251 CNS) read?
The TGI was 17.6 µM.

And the TGI (ACHN renal)?
Its TGI is 42.9 µM.

What about the TGI (PC-3 prostate) of the same compound?
Its TGI is 48.9 µM.

What about the TGI (LOX IMVI melanoma) of the same compound?
Its TGI is over 100 µM.

What about the TGI (KM12 colon) of the same compound?
The TGI was over 60.2 µM.

And the TGI (CCRF-CEM leukemia)?
Its TGI is 5.99 µM.

And the TGI (SK-MEL-28 melanoma)?
Its TGI is 11.9 µM.

What about the TGI (IGROV1 ovarian) of the same compound?
Its TGI is 39.7 µM.

And the TGI (NCI-H226 lung)?
The TGI was 37.4 µM.

And the TGI (EKVX NSCLC)?
Its TGI is 41.8 µM.

What about the TGI (UO-31 renal) of the same compound?
Its TGI is 16.8 µM.

And the TGI (SN12C renal)?
Its TGI is 47.4 µM.

What about the TGI (MALME-3M melanoma) of the same compound?
Its TGI is over 30.2 µM.

What about the TGI (HCC-2998 colon) of the same compound?
The TGI was 14.5 µM.

And the TGI (HCT-116 colon)?
The TGI was 8.78 µM.

And the TGI (MCF7 breast)?
Its TGI is 30.1 µM.

What about the TGI (K-562 leukemia) of the same compound?
The TGI was over 37.5 µM.

What about the TGI (MDA-N) of the same compound?
Its TGI is 46.3 µM.

What about the TGI (NCI-H460 lung) of the same compound?
The TGI was 30.2 µM.

What about the TGI (HOP-62 NSCLC) of the same compound?
The TGI was 35.5 µM.

And the TGI (SW-620 colon)?
Its TGI is 18.6 µM.

And the TGI (SK-MEL-5 melanoma)?
The TGI was 22.9 µM.

And the TGI (HT29 colon)?
Its TGI is over 25.7 µM.

And the TGI (OVCAR-5 ovarian)?
The TGI was 31.1 µM.

And the TGI (NCI-H522 lung)?
Its TGI is 7.69 µM.

And the TGI (COLO 205 colon)?
Its TGI is 27.9 µM.

And the TGI (HOP-92 NSCLC)?
The TGI was 24.7 µM.

And the TGI (BT-549 breast)?
Its TGI is 31.1 µM.

What about the TGI (CAKI-1 renal) of the same compound?
The TGI was 30 µM.

And the TGI (RXF 393 renal)?
Its TGI is 33.9 µM.

And the TGI (OVCAR-4 ovarian)?
Its TGI is over 58.8 µM.

And the TGI (786-0 renal)?
The TGI was 5.05 µM.

What about the TGI (SF-539 CNS) of the same compound?
Its TGI is 22 µM.

What about the TGI (UACC-62 melanoma) of the same compound?
The TGI was 39.5 µM.

What about the TGI (DU-145 prostate) of the same compound?
The TGI was 26.2 µM.

And the TGI (SK-MEL-2 melanoma)?
Its TGI is 34.8 µM.

And the TGI (A549 NSCLC)?
Its TGI is 20.3 µM.

And the TGI (A498 renal)?
The TGI was 34.9 µM.

What about the TGI (NCI-H23 lung) of the same compound?
Its TGI is 31.4 µM.

And the TGI (T-47D breast)?
Its TGI is 47.5 µM.

And the TGI (RPMI-8226 leukemia)?
Its TGI is over 63.8 µM.

What about the TGI (OVCAR-8 ovarian) of the same compound?
Its TGI is 18.9 µM.

What about the TGI (SK-OV-3 ovarian) of the same compound?
Its TGI is 31.7 µM.

What about the TGI (SNB-75 CNS) of the same compound?
The TGI was 28 µM.

And the TGI (SF-268 CNS)?
The TGI was 61.7 µM.

And the TGI (MOLT-4 leukemia)?
The TGI was 46 µM.

And the TGI (OVCAR-3 ovarian)?
Its TGI is 30.9 µM.

And the TGI (SR leukemia)?
Its TGI is 10.2 µM.

And the TGI (SF-295 CNS)?
The TGI was 30.4 µM.

What about the TGI (HCT-15 colon) of the same compound?
The TGI was over 100 µM.

What about the TGI (HS 578T breast) of the same compound?
The TGI was over 61.9 µM.

And the TGI (TK-10 renal)?
Its TGI is 11.6 µM.

What about the TGI (NCI/ADR-RES ovarian) of the same compound?
Its TGI is 53.6 µM.

What about the TGI (MDA-MB-435) of the same compound?
Its TGI is 39 µM.

And the TGI (SNB-19 CNS)?
The TGI was 46.1 µM.

What about the TGI (UACC-257 melanoma) of the same compound?
Its TGI is 19.5 µM.

What about the TGI (HL-60(TB) leukemia) of the same compound?
Its TGI is 43.3 µM.

And the TGI (MDA-MB-231 breast)?
The TGI was 16.4 µM.
